We go through six compounds from paper PMC8150835, “An Smp43-Derived Short-Chain α-Helical Peptide Displays a Unique Sequence and Possesses Antimicrobial Activity against Both Gram-Positive and Gram-Negative Bacteria” (Toxins, 2021).

Converted amounts (≈) assume the structure as drawn. “Also recorded” adds a separate entry of the source. Where a SMILES comes first, the peptide text is derived from it.

One data set concerns tested pathogens. The conditions noted are these: reported for the parent peptide; cited from earlier work.
The test system of data set [1] is Gram-positive and Gram-negative bacteria (all bacterial strains tested). Put plainly: MIC determination, summary over all tested bacterial strains. The settings on record: summary over the six strains tested; MHB, 37 °C, 18 h, peptide 0.625 to 40 μg/mL. The class given is cell-based. As for the experimental part: (§1) The antimicrobial activities of the peptides were tested against S. aureus ATCC29213, E. faecalis ATCC29212, E. coli ATCC25922, K. pneumoniae ATCC700603, P. aeruginosa ATCC27853 and A. baumannii ATCC19606. All these strains were purchased from the China Center of Type Culture Collection (CCTCC).
(§2) The antimicrobial activities of the peptides were determined as previously described. Briefly, the bacteria were incubated at 37 °C and 150 rpm until the log phase of growth. Next, the bacteria were diluted with Mueller-Hinton broth (MHB, Oxoid, UK) and prepared in a clear round-bottom polypropylene 96-well microtiter plate to achieve a final concentration of 5 × 10^5 colony-forming unit (CFU)/mL. Twofold serial dilutions of the peptides were added into each well with the concentrations ranging from 0.625 to 40 μg/mL. The mixed peptides and cells were cultured at 37 °C and 150 rpm for 18 h, and the optical density (OD) was measured at 630 nm. The minimum inhibitory concentration was defined as the lowest peptide concentration with no detectable bacterial growth.

A further data set has as its system human red blood cells. Briefly: Hemolytic activity determination. The format is cell-based. The conditions noted are these: 2% (v/v) hRBCs, peptide 12.5-200 μg/mL, 37 °C, 1 h, absorbance 540 nm; 1% Triton X-100 = 100%; three independent experiments. As for the experimental part:
The hemolytic activities of the peptides were determined against human red blood cells (hRBCs). Briefly, fresh hRBCs anticoagulated with sodium citrate were rinsed with 0.9% sodium chloride by centrifugation (1000× g, 5 min). Then, the cells were diluted to a final concentration of 2% (v/v) and prepared in a clear 96-well polypropylene microtiter plate. Next, the samples were mixed with a series of concentrations of the peptide (12.5, 25, 50, 100 and 200 μg/mL) and incubated at 37 °C for 1 h. After that, the samples were centrifuged (2000× g, 10 min), and the absorbances of the supernatants were measured at 540 nm to evaluate the release of hemoglobin. HRBCs treated with 1% Triton X-100 or 0.9% sodium chloride were taken as 100% and 0% hemolysis, respectively.

The test system of data set [2] is mouse fibroblast cell line L929. Put plainly: Cytotoxicity determination (CCK-8). The format is cell-based. The settings on record: L929 cells, peptide 0-100 μg/mL, 24 h, CCK-8, OD 450 nm; three independent experiments. As for the experimental part: To determine the cytotoxicity of the peptide, the mouse fibroblast cell L929 (8000 cells per well) were seeded in a 96-well plate and incubated for 24 h in Dulbecco’s modified Eagle’s medium (DMEM, Gibco, USA) supplemented with 10% fetal bovine serum (FBS, Gibco, USA), 2 mM/L L-glutamine, 100 U/mL penicillin and […] streptomycin (1% P/S, Invitrogen, USA) at 37 °C in a 5% CO2 atmosphere. Then, a series of concentrations of the peptide (0, 5, 10, 20, 40, 60, 80 and 100 μg/mL) were added into each well and incubation was performed for 24 h. After that, the cytotoxicity of the peptide was measured with the CCK8 cell counting kit (Yeasen, Shanghai, China) by measuring the optical density at 450 nm.

The subject of data set [3] is Staphylococcus aureus ATCC29213. Briefly: MIC determination (broth microdilution). The settings on record: MHB, 5 × 10^5 CFU/mL, peptide 0.625 to 40 μg/mL, 37 °C, 18 h, OD 630 nm. The format is cell-based. On the procedure:
as §1, §2
A general note: In broth dilution the organism is exposed to a series of concentrations in liquid medium.

Data set [4] deals with Acinetobacter baumannii ATCC19606. Briefly: MIC determination (broth microdilution). The settings on record: MHB, 5 × 10^5 CFU/mL, peptide 0.625 to 40 μg/mL, 37 °C, 18 h, OD 630 nm. The format is cell-based. As for the experimental part: as §1, §2
The subject of data set [5] is Pseudomonas aeruginosa ATCC27853. Put plainly: MIC determination (broth microdilution). The class given is cell-based. The conditions noted are these: MHB, 5 × 10^5 CFU/mL, peptide 0.625 to 40 μg/mL, 37 °C, 18 h, OD 630 nm. As for the experimental part:
as §1, §2

Data set [6] concerns Klebsiella pneumoniae ATCC700603. Put plainly: MIC determination (broth microdilution). The format is cell-based. The conditions noted are these: MHB, 5 × 10^5 CFU/mL, peptide 0.625 to 40 μg/mL, 37 °C, 18 h, OD 630 nm. On the procedure:
as §1, §2

Data set [7] concerns Enterococcus faecalis ATCC29212. Briefly: MIC determination (broth microdilution). The settings on record: MHB, 5 × 10^5 CFU/mL, peptide 0.625 to 40 μg/mL, 37 °C, 18 h, OD 630 nm. The class given is cell-based. On the procedure: as §1, §2
In data set [8] the test system is Escherichia coli ATCC25922. Put plainly: MIC determination (broth microdilution). The class given is cell-based. The settings on record: MHB, 5 × 10^5 CFU/mL, peptide 0.625 to 40 μg/mL, 37 °C, 18 h, OD 630 nm. On the procedure: as §1, §2

As usually defined, the MIC is the smallest concentration in the dilution series that meets the test's criterion for growth inhibition. Low values mean inhibition by little substance, high ones a need for much substance.

With “G-VWDWIKKTAGKIWNSEPVKALKSQALNAAKNFVAEKIGATPS [Smp43]”, the antimicrobial activity entry in the data set with tested pathogens is “poor antimicrobial activities; also recorded: poor antimicrobial activity”.
Turning to `CC[C@H](C)[C@H](NC(=O)[C@H](CCCCN)NC(=O)CNC(=O)[C@H](C)NC(=O)[C@@H](NC(=O)[C@H](CCCCN)NC(=O)[C@H](CCCCN)NC(=O)[C@@H](NC(=O)[C@H](Cc1c[nH]c2ccccc12)NC(=O)[C@H](CC(=O)O)NC(=O)[C@H](Cc1c[nH]c2ccccc12)NC(=O)[C@@H](NC(=O)CN)C(C)C)[C@@H](C)CC)[C@@H](C)O)C(=O)N[C@@H](Cc1c[nH]c2ccccc12)C(N)=O` [Smp43(1-14)] (H-GVWDWIKKTAGKIW-NH2), in data set [1], the “MICs against the tested Gram-positive and Gram-negative bacterial species” value fell in the range of 5 to 10 µg/mL. Also, in the data set with human red blood cells, the “HC10: the concentration of the peptide that causes 10% hemolysis of human red blood cells” value was found to be 75 µg/mL. Further, in [2], the “IC10: the concentration of the peptide that causes 10% inhibition of cell growth” value amounted to 92 µg/mL. Moreover, the minimum inhibitory concentration (MIC) in [3] turned out to be 5 µg/mL (≈ 2.96 µM); in [4], 5 µg/mL (≈ 2.96 µM); in [5], 10 µg/mL (≈ 5.93 µM); in data set [6], 10 µg/mL (≈ 5.93 µM); in data set [7], 10 µg/mL (≈ 5.93 µM); in data set [8] it was 10 µg/mL (≈ 5.93 µM).
`CC[C@H](C)[C@H](NC(=O)[C@H](CCCCN)NC(=O)CNC(=O)[C@H](C)NC(=O)[C@@H](N)[C@@H](C)O)C(=O)N[C@@H](Cc1c[nH]c2ccccc12)C(=O)N[C@@H](CC(N)=O)C(=O)N[C@@H](CO)C(=O)N[C@@H](CCC(=O)O)C(=O)N1CCC[C@H]1C(=O)N[C@H](C(=O)N[C@@H](CCCCN)C(=O)N[C@@H](C)C(=O)N[C@@H](CC(C)C)C(N)=O)C(C)C` [Smp43(9-22)] (H-TAGKIWNSEPVKAL-NH2): in the data set with human red blood cells, the “HC10: the concentration of the peptide that causes 10% hemolysis of human red blood cells” value was above 200 µg/mL. Further, the MIC in data set [3], in [4], in [5], in data set [6], in data set [7] and in data set [8] was above 40 µg/mL each time.
Consider `CC[C@H](C)[C@H](N)C(=O)N[C@@H](Cc1c[nH]c2ccccc12)C(=O)N[C@@H](CC(N)=O)C(=O)N[C@@H](CO)C(=O)N[C@@H](CCC(=O)O)C(=O)N1CCC[C@H]1C(=O)N[C@H](C(=O)N[C@@H](CCCCN)C(=O)N[C@@H](C)C(=O)N[C@@H](CC(C)C)C(=O)N[C@@H](CCCCN)C(=O)N[C@@H](CO)C(=O)N[C@@H](CCC(N)=O)C(=O)N[C@@H](C)C(N)=O)C(C)C` [Smp43(13-26)] (H-IWNSEPVKALKSQA-NH2), for which the “HC10: the concentration of the peptide that causes 10% hemolysis of human red blood cells” value in the data set on human red blood cells is above 200 µg/mL. In addition, the minimal inhibitory concentration (MIC) in [3], in data set [4], in data set [5], in data set [6], in [7] and in [8] was above 40 µg/mL in each case.
With `CC[C@H](C)[C@H](NC(=O)[C@H](CCCCN)NC(=O)CNC(=O)[C@H](C)NC(=O)[C@@H](NC(=O)[C@H](CCCCN)NC(=O)[C@H](CCCCN)NC(=O)[C@@H](NC(=O)[C@@H](N)Cc1c[nH]c2ccccc12)[C@@H](C)CC)[C@@H](C)O)C(=O)N[C@@H](Cc1c[nH]c2ccccc12)C(=O)N[C@@H](CC(N)=O)C(=O)N[C@@H](CO)C(=O)N[C@@H](CCC(=O)O)C(=O)N1CCC[C@H]1C(N)=O` [Smp43(5-18)] (H-WIKKTAGKIWNSEP-NH2), the “HC10: the concentration of the peptide that causes 10% hemolysis of human red blood cells” value in the data set with human red blood cells was above 200 µg/mL. The MIC in data set [3], in data set [4], in data set [5], in [6], in [7] and in data set [8] was above 40 µg/mL in each case.
For `CC[C@H](C)[C@H](NC(=O)[C@H](CCCCN)NC(=O)CN)C(=O)N[C@@H](Cc1c[nH]c2ccccc12)C(=O)N[C@@H](CC(N)=O)C(=O)N[C@@H](CO)C(=O)N[C@@H](CCC(=O)O)C(=O)N1CCC[C@H]1C(=O)N[C@H](C(=O)N[C@@H](CCCCN)C(=O)N[C@@H](C)C(=O)N[C@@H](CC(C)C)C(=O)N[C@@H](CCCCN)C(=O)N[C@@H](CO)C(N)=O)C(C)C` [Smp43(11-24)] (H-GKIWNSEPVKALKS-NH2), in the data set on human red blood cells, the “HC10: the concentration of the peptide that causes 10% hemolysis of human red blood cells” value was above 200 µg/mL. Moreover, the MIC in [3], in [4], in data set [5], in [6], in [7] and in data set [8] was above 40 µg/mL each time.
